# Measured values from patent US7737141B2, “Prodrug of cinnamide compound” (Eisai R&D Management Co., Ltd., priority 2006, dated 2010).
# Like-named read-outs stand apart in the source and are kept apart here.
# Test: Solubility test: apparent solubility in test solutions, HPLC-UV
# Assay type: physicochemical
# Conditions: for solubility: aqueous buffer, thermodynamic from solid
# Procedure: Several milligram of each compound to be tested was precisely weighed, and 0.1 to 1.3 mL of the following test solutions were each added to the compound. The resulting mixture was stirred for several tens of seconds to several minutes for dispersing or dissolving the compound. Then, the supernatant was collected by centrifugation or filtration through a membrane. The concentration of the compound in the supernatant was quantitatively measured by an HPLC-UV method as an apparent solubility of the compound to each test solution.
# pH 5: Diluted Mcllvaine buffer solution (KANTO Chemical Co. Inc.)
# pH 7: GIBCO™ Dulbecco's phosphate-buffered saline (Invitrogen Corporation)
# [1] = pH 7: Dulbecco's phosphate-buffered saline, read-out: Solubility at pH 7
# [2] = diluted McIlvaine buffer solution, pH 5: Diluted Mcllvaine buffer solution, read-out: Solubility at pH 5
solubility [1] [µg/mL],solubility [2] [µg/mL],Molecule,Solubility at pH 5 (pH 5: Diluted Mcllvaine buffer solution) [mg/mL],Solubility at pH 7 (pH 7: Dulbecco's phosphate-buffered saline) [mg/mL]
–,–,1-{4-{(E)-1-{[(S)-1-(4-fluorophenyl)ethyl]-2-oxopiperidin-3-ylidene}methyl}-2-methoxyphenyl}-4-methyl-1H-imidazol-3-iomethyl monohydrogenphosphate [Example 2],>10,>10
> 10000,> 10000,"COc1cc(/C=C2\CCCN([C@H](c3cc(F)c(F)c(F)c3)[C@@H](C)O)C2=O)ccc1-n1cc(C)[n+](COP(=O)(O)O)c1.O=C([O-])C(F)(F)F [Example 4, 3-{4-{1-[(1R,2R)-2-hydroxy-1-(3,4,5-trifluorophenyl)propyl]-2-oxopiperidin-(3E)-ylidenemethyl}-2-methoxyphenyl}-5-methyl-1-(phosphonooxymethyl)-3H-imidazol-1-ium trifluoroacetate]",–,–
460,320,"Cc1cn(-c2ccc(/C=C3\O[C@@H](C)CN([C@H](c4cc(F)c(F)c(F)c4)[C@@H](C)O)C3=O)cc2F)c[n+]1COP(=O)(O)O.O=C([O-])C(F)(F)F [Example 5, 3-[2-fluoro-4-[(S)-4-[(1R,2R)-2-hydroxy-1-(3,4,5-trifluorophenyl)propyl]-6-methyl-3-oxomorpholin-(2Z)-ylidenemethyl]phenyl]-5-methyl-1-phosphonooxymethyl-3H-imidazol-1-ium trifluoroacetate]",–,–
8890,9140,"COc1cc(/C=C2\CC[C@H]3CC[C@@H](c4cc(F)c(F)c(F)c4)N3C2=O)ccc1-n1cc(C)[n+](COP(=O)(O)O)c1.O=C([O-])C(F)(F)F [Example 6, 3-{2-methoxy-4-[(3S,8aS)-5-oxo-3-(3,4,5-trifluorophenyl)hexahydroindolizin-(6E)-ylidenemethyl]phenyl}-5-methyl-1-phosphonooxymethyl-3H-imidazol-1-ium trifluoroacetate]",–,–
1690,960,"COc1cc(/C=C2\CC[C@H]3CC[C@@H](c4ccc(Cl)cc4)N3C2=O)ccc1-n1cc(C)[n+](COP(=O)(O)O)c1.O=C([O-])C(F)(F)F [Example 8, 3-{4-[(3S,8aS)-3-(4-chlorophenyl)-5-oxohexahydroindolizin-(6E)-ylidenemethyl]-2-methoxyphenyl}-5-methyl-1-(phosphonooxymethyl)-3H-imidazol-1-ium trifluoroacetate]",–,–
4720,3450,"Cc1cn(-c2ccc(/C=C3\O[C@@H](C)CN([C@H](c4ccc(F)c(F)c4)[C@@H](C)O)C3=O)cc2F)c[n+]1COP(=O)(O)O.O=C([O-])C(F)(F)F [Example 9, 3-{4-{(S)-4-[(1R,2R)-1-(3,4-difluorophenyl)-2-hydroxypropyl]-6-methyl-3-oxomorpholin-(2Z)-ylidenemethyl}-2-fluorophenyl}-5-methyl-1-phosphonooxymethyl-3H-imidazol-1-ium trifluoroacetate]",–,–
9760,9590,"COc1cc(/C=C2\CC[C@@H]3CCC[C@@H](c4cc(F)c(F)c(F)c4)N3C2=O)ccc1-n1cc(C)[n+](COP(=O)(O)O)c1.O=C([O-])C(F)(F)F [Example 10, 3-{2-methoxy-4-[(6S,9aS)-4-oxo-6-(3,4,5-trifluorophenyl)hexahydroquinolizin-(3E)-ylidenemethyl]phenyl}-5-methyl-1-(phosphonooxymethyl)-3H-imidazol-1-ium trifluoroacetate]",–,–
8110,7680,"COc1cc(/C=C2\CC[C@H]3COC[C@@H](c4cc(F)c(F)c(F)c4)N3C2=O)ccc1-n1cc(C)[n+](COP(=O)(O)O)c1.O=C([O-])C(F)(F)F [Example 11, 3-{2-methoxy-4-[(4R,9aS)-6-oxo-4-(3,4,5-trifluorophenyl)hexahydropyrido[2,1-c][1,4]oxazin-(7E)-ylidenemethyl]phenyl}-5-methyl-1-phosphonooxymethyl-3H-imidazol-1-ium trifluoroacetate]",–,–
1830,3440,"COc1cc(/C=C2\O[C@@H](C)CN([C@H](c3cc(F)c(F)c(F)c3)[C@@H](C)O)C2=O)ccc1-n1cc(C)[n+](COP(=O)(O)O)c1.O=C([O-])C(F)(F)F [Example 12, 3-{4-{(S)-4-[(1R,2R)-2-hydroxy-1-(3,4,5-trifluorophenyl)propyl]-6-methyl-3-oxomorpholin-(2Z)-ylidenemethyl}-2-methoxyphenyl}-5-methyl-1-(phosphonooxymethyl)-3H-imidazol-1-ium trifluoroacetate]",–,–
9150,9330,"COc1cc(/C=C2\CC[C@H]3CCC[C@@H](c4ccc(Cl)cc4)N3C2=O)ccc1-n1cc(C)[n+](COP(=O)(O)O)c1.O=C([O-])C(F)(F)F [Example 13, 3-{4-[(6S,9aR)-6-(4-chlorophenyl)-4-oxohexahydroquinolizin-(3E)-ylidenemethyl]-2-methoxyphenyl}-5-methyl-1-phosphonooxymethyl-3H-imidazol-1-ium trifluoroacetate]",–,–
> 10000,> 10000,"COc1cc(/C=C2\O[C@@H](C)[C@H]3COC[C@@H](c4cc(F)c(F)c(F)c4)N3C2=O)ccc1-n1cc(C)[n+](COP(=O)(O)O)c1.O=C([O-])C(F)(F)F [Example 14, 3-{2-methoxy-4-[(1S,6R,9aR)-1-methyl-4-oxo-6-(3,4,5-trifluorophenyl)tetrahydro-[1,4]oxazino[3,4-c][1,4]oxazine-(3Z)-ylidenemethyl]phenyl}-5-methyl-1-phosphonooxymethyl-3H-imidazole-1-ium trifluoroacetate]",–,–
> 10000,> 10000,"COc1cc(/C=C2\O[C@@H](C)[C@H]3COC[C@@H](c4ccc(Cl)cc4)N3C2=O)ccc1-n1cc(C)[n+](COP(=O)(O)O)c1.O=C([O-])C(F)(F)F [Example 15, 3-{4-[(1S,6R,9aR)-6-(4-chlorophenyl)-1-methyl-4-oxotetrahydro[1,4]oxazino[3,4-c][1,4]oxazine-(3Z)-ylidenemethyl]-2-methoxyphenyl}-5-methyl-1-phosphonooxymethyl-3H-imidazole-1-ium trifluoroacetate]",–,–
1120,1150,"COc1cc(/C=C2\O[C@@H](C)[C@H]3CC[C@@H](c4cc(F)c(F)c(F)c4)N3C2=O)ccc1-n1cc(C)[n+](COP(=O)(O)O)c1.O=C([O-])C(F)(F)F [Example 16, 3-{2-methoxy-4-[(1S,6S,8aR)-1-methyl-4-oxo-6-(3,4,5-trifluorophenyl)tetrahydropyrrolo[2,1-c][1,4]oxazine-(3Z)-ylidenemethyl]phenyl}-5-methyl-1-phosphonooxymethyl-3H-imidazole-1-ium trifluoroacetate]",–,–
7550,> 10000,"COc1cc(/C=C2\O[C@@H](C)[C@H]3COC[C@@H](c4ccc(F)c(F)c4)N3C2=O)ccc1-n1cc(C)[n+](COP(=O)(O)O)c1.O=C([O-])C(F)(F)F [Example 17, 3-{4-[(1S,6R,9aR)-6-(3,4-difluorophenyl)-1-methyl-4-oxotetrahydro[1,4]oxazino[3,4-c][1,4]oxazine-(3Z)-ylidenemethyl]-2-methoxyphenyl}-5-methyl-1-phosphonooxymethyl-3H-imidazole-1-ium trifluoroacetate]",–,–
> 10000,> 10000,"COc1cc(/C=C2\OC(C)(C)[C@H]3COC[C@@H](c4cc(F)c(F)c(F)c4)N3C2=O)ccc1-n1cc(C)[n+](COP(=O)(O)O)c1.O=C([O-])C(F)(F)F [Example 18, 3-{4-[(6R,9aR)-1,1-dimethyl-4-oxo-6-(3,4,5-trifluorophenyl)tetrahydro[1,4]oxazino[3,4-c][1,4]oxazine-(3Z)-ylidenemethyl]-2-methoxyphenyl}-5-methyl-1-phosphonooxymethyl-3H-imidazole-1-ium trifluoroacetate]",–,–

Molecule,solubility [1] [µg/mL],solubility [2] [µg/mL],Solubility at pH 5 (pH 5: Diluted Mcllvaine buffer solution) [mg/mL],Solubility at pH 7 (pH 7: Dulbecco's phosphate-buffered saline) [mg/mL]
"COc1cc(/C=C2\CCCN([C@@H](C)c3ccc(F)cc3)C2=O)ccc1-n1cc(C)[n+](COC(C)=O)c1.[I-] [Example 3, 1-acetoxymethyl-3-[4-{1-[(S)-1-(4-fluorophenyl)ethyl]-2-oxopiperidin-(3E)-ylidenemethyl]-2-methoxyphenyl}-5-methyl-3H-imidazol-1-ium iodide]",1120,1240,–,–
